# From patent US20210401708A1, “Skin Anti-Aging Composition Containing Irilin B” (PHYTO CORPORATION INC., priority 2018, published 2021)
# Key:
# aquaporin 3 (AQP3) = assay: Expression level of skin moisturizing factor AQP3 in UVA-irradiated HaCaT cells (RT-PCR); assay type: cell-based, human
# Experimental: (§1) In order to investigate the expression levels of aquaporin 3 (AQP3) and hyaluronic acid synthase 2 (HAS2), which are moisturizing factors involved in the migration of cell moisture, the test was performed using the human skin keratinocytes HaCaT cells (Korean Cell Line Bank). The HaCaT cells were incubated in Dulbecco's modified Eagle's medium (DEME, Gibco 1210-0038) containing 10% FBS. Cell incubation was carried out using a 5% CO2 incubator at 37° C. After the cells were treated with Irilin B and ultraviolet light (aging treatment: UVA: 5 J/cm^2), the levels of AQP3 and HAS2 expressed in the cells were measured. The expression levels were measured by extracting RNA from the HaCaT cells and performing real-time polymerase change reaction (RT-PCR). The test substance Irilin B was treated after UVA irradiation. Irilin B was in advance prepared into a 10 mg/ml stock solution by addition of DMEM. Upon the test, the cells were treated with the stock solution diluted to 1/1,000 to 1/500. […]
# (§2) The gene expression test (RNA extraction and real-time polymerase chain reaction (PCR)) was performed in the following order:
# (§3) i) RNA was extracted using TRIzol Reagent (Gibco, USA).
# (§4) ii) The cDNA synthesis from the extracted RNA was performed using the ReverTra Ace reverse transcriptase kit (Toyobo, USA). […]
# [1] = tested on: hyaluronic acid synthase 2 (HAS2); assay: Expression level of skin moisturizing factor HAS2 in UVA-irradiated HaCaT cells (RT-PCR); assay type: cell-based, human; conditions: UVA 5 J/cm^2, 10, 20, 40 μg/ml, 24 hours
# Experimental: as §1, §2, §3, §4
# [2] = target: T1, elastase isolated from human leukocytes (Homo sapiens, UniProt P08246); assay: Measurement of anti-elastase activity; assay type: biochemical
# T1 construct: The elastase isolated from human leukocytes were used; from tissue; host or cells: human leukocytes
# T1 sequence (P08246 30-267): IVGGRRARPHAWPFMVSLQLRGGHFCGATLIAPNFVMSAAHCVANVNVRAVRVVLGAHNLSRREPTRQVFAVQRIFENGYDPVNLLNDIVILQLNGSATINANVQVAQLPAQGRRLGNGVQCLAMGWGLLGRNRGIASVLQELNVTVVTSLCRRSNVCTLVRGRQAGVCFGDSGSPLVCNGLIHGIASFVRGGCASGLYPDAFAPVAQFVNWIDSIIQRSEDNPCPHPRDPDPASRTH
# Experimental: The anti-elastase activity (elastase being an elastin degradation enzyme) was tested as below. The elastase isolated from human leukocytes were used. The synthetic oligopeptide, MeOSuc-Ala-Ala-Pro-Val-pNA, was used as a substrate of an enzyme reaction. A 100 mM Tris (pH 7.5) solution was used as a buffer solution. Elastase was finally used at 0.2 mU using the buffer solution. In addition, the synthetic substrate of elastase was made into a 100 mM solution using […], and then diluted to a final concentration of 0.5 mM in the buffer solution. […] The concentration of quercetin (Sigma Co.), which was a positive control known as an anti-elastase substance, was 10 μg/ml or 20 μg/ml in the test. The reaction was carried out in 96-well UV plates (Corning Co.) at room temperature for 20 minutes. The absorbance was measured at 405 nm at intervals of 1 minute using a microplate spectrophotometer (Bio-Rad). The enzyme activity was determined by obtaining the maximal slope of absorbance over time. All enzymatic reactions were repeatedly carried out three times, and expressed as average values. The […] was calculated as below:
# Anti-elastase activity (%)=[(absolute value of slope in control−absolute value of slope in test sample)/absolute value of slope in control]×100 [Calculation Formula]
# Human skin keratinocytes = assay: Keratinocyte differentiation promoting effect; assay type: cell-based; conditions: for Cell differentiation promoting effect (%): vs distilled water (0%)
# Experimental: Human skin keratinocytes (Korean Cell Line Bank) were seeded in the CO2 incubation flask in which DMEM containing 10% FBS was placed. After the cells were grown to a confluency of about 80%, Irilin B at different concentrations (5, 10, 20, 50, 100 μg/ml) were added to the cells, followed by incubation for 3 days. Thereafter, the cells were treated with a reduction modifier, such as sodium dodecyl sulfate (SDS) and β-mercaptoethanol, to remove proteins. After the treatment, the remaining keratinocyte layer was suspended in distilled water, and then the absorbance was measured at 310 nm to analyze the peptide concentration. The increase by each sample was compared on the basis of the negative control, distilled water (0%). In the positive control, the cells were treated with 10 nM TGF-β known as a cell differentiation factor. All the tests of keratinocyte differentiation promoting effect were repeatedly carried out three times. The absorbance at 310 nm is expressed as a mean and standard deviation, and the cell differentiation promoting effect is expressed, using the following calculation formula, as an average value (%), in Table 4.
# Cell differentiation promoting effect (%)=(absorbance value at 310 nm in test sample−absorbance value at 310 nm in negative control)×100 [Calculation Formula]
# [3] = tested on: Collagenase isolated from mouse pancreases; assay: Measurement of anti-collagenase activity; assay type: biochemical
# Experimental: Collagenase, used in the measurement of enzyme activity, was isolated from mouse pancreases. The synthetic peptide, N-(3-[2-Furyl]acryloyl)-Leu-Gly-Pro-Ala, was used as a substrate compound for an enzymatic reaction. A solution containing 50 mM Tricine, 10 mM CaCl2.H2O, and 400 mM NaCl (pH 7.5) dissolved therein was used as a buffer solution. The synthetic substrate was dissolved to a concentration of […] in the buffer solution, and then finally diluted to 75 μM. Collagenase was dissolved to a concentration of 1 unit/ml in tertiary distilled water at 4° C. Upon the test, the collagenase diluted to a final concentration of 0.05 unit/ml in the buffer solution was used. […] In addition, the concentration of retinol (Sigma Co.), which was a positive control known as an anti-collagenase substance, was 10 μg/ml or 20 μg/ml in the test. The reaction was carried out in 96-well UV plates (Corning Co.) at room temperature for 10 minutes. The absorbance was measured at 345 nm at intervals of 1 minute using a microplate spectrophotometer (Bio-Rad). The enzyme activity was determined by obtaining the maximal slope of absorbance over time. All enzymatic reactions were repeatedly carried out three times, and expressed as average values. The anti-collagenase activity was calculated as below:
# Anti-collagenase activity (%)=[(absolute value of slope in control−absolute value of slope in test sample)/absolute value of slope in control]×100 [Calculation Formula]
# [4] = both at 20 μg/ml, same conditions
Anti-collagenase activity (%) ([3]; 10 μg/ml),Enzyme activity (Absolute value of maximal slope of absorbance over time at 345 nm) ([3]; 10 μg/ml),Anti-collagenase activity (%) ([3]; 20 μg/ml),Enzyme activity (Absolute value of maximal slope of absorbance over time at 345 nm) ([3]; 20 μg/ml),Molecule,Enzyme activity (Absolute value of maximal slope of absorbance over time at 405 nm) ([2]; 10 μg/ml),inhibition at 10 µg/mL ([2]; 10 μg/ml) [%],Enzyme activity (Absolute value of maximal slope of absorbance over time at 405 nm) ([2]; 20 μg/ml),inhibition at 20 µg/mL ([2]; 20 μg/ml) [%],further results
49.38,0.41,62.96,0.30,"COc1c(O)cc2occ(-c3ccccc3O)c(=O)c2c1O [Irilin B, 5,7,2′-trihydroxy-6-methoxyisoflavone]",0.72,42.9,0.54,57.1,"expression level of AQP3 after UVA irradiation (FIG. 1) (aquaporin 3 (AQP3); UVA 5 J/cm^2, 40 μg/ml): again increased to a level in the control irradiated without UVA; expression of AQP3 after UVA irradiation (FIG. 1) (aquaporin 3 (AQP3); UVA 5 J/cm^2, 10, 20, 40 μg/ml, 24 hours): restored the UVA-reduced level of AQP3 in a dose dependent manner; expression of HAS2 after UVA irradiation (FIG. 2) [1]: again restored to a level in the normal control; Enzyme activity (Absolute value of maximal slope of absorbance over time at 405 nm) ([2]; 5 μg/ml): 0.85; inhibition at 5 µg/mL ([2]; 5 μg/ml): 32.5%; anti-elastase activity compared with quercetin [2, 4]: about 1.47 fold; Cell differentiation promoting effect (%) (Human skin keratinocytes; 10 μg/ml, 3 days): 28.2%; Cell differentiation promoting effect (%) (Human skin keratinocytes; 20 μg/ml, 3 days): 46.7%; Cell differentiation promoting effect (%) (Human skin keratinocytes; 50 μg/ml, 3 days): 95.3%; cell differentiation promoting effect compared with positive control (in words) (Human skin keratinocytes; 100 μg/ml vs TGF-β 10 nM): equivalent to the cell differentiation factor TGF-β (10 nM); Cell differentiation promoting effect (%) (Human skin keratinocytes; 100 μg/ml, 3 days): 142.4%; differentiation of keratinocytes (in words) (Human skin keratinocytes; 5, 10, 20, 50, and 100 μg/ml): promoted the differentiation of keratinocytes; Anti-collagenase activity (%) ([3]; 5 μg/ml): 33.33%; Enzyme activity (Absolute value of maximal slope of absorbance over time at 345 nm) ([3]; 5 μg/ml): 0.54; anti-collagenase activity compared with retinol [3, 4]: about 2.05 fold"
,,,,"O=c1c(O)c(-c2ccc(O)c(O)c2)oc2cc(O)cc(O)c12 [Quercetin, quercetin, reference compound]",0.88,30.2 ± 3.14,0.77,38.9,
17.28 ± 0.85,0.67,30.86,0.56,"CC1=C(/C=C/C(C)=C/C=C/C(C)=C/CO)C(C)(C)CCC1 [Retinol, reference compound]",,,,,
,,,,transforming growth factor-β (TGF-β),,,,,Cell differentiation promoting effect (%) (Human skin keratinocytes; 10 nM): 144.7%
